Experimental data published in patent US8802597B2, “Herbicidal pyrimidines” (E I du Pont de Nemours and Company, priority 2003, dated 2014).

Legend:
Assay type in all cases: in vivo
[1] = system: Italian ryegrass (Lolium multiflorum); test: Test C postemergence
Outline: (§1)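 Injury scored visually 12–14 days after application on 0–100 scale (100 = complete control), relative to controls. Compounds, formulated with surfactant in non-phytotoxic solvent, applied to soil at planting (pre) or to 1- to 4-leaf plants 2–18 cm tall (post) in greenhouse.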

[2] = system: canarygrass (Phalaris minor); test: Test C postemergence
Outline: as §1

[3] = system: blackgrass (Alopecurus myosuroides); test: Test C postemergence
Outline: as §1

[4] = system: wild oat (Avena fatua); test: Test C postemergence
Outline: as §1

[5] = system: downy brome (Bromus tectorum); test: Test C postemergence
Outline: as §1

[6] = system: windgrass (Apera spica-venti); test: Test C postemergence
Outline: as §1

[7] = system: wheat (Triticum aestivum); test: Test C postemergence
Outline: as §1

[8] = system: winter barley (Hordeum vulgare); test: Test C postemergence
Outline: as §1

[9] = system: green foxtail (Setaria viridis); test: Test C postemergence
Outline: as §1

[10] = system: purple redstem (Ammannia coccinea); test: Test E flooded paddy water application; details: Flood, 21 days, scale 0 to 100 (0 no effect, 100 complete control)
Outline: (§2)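 Greenhouse pots of Tama silt loam with weeds and rice at 2.0–2.5-leaf stage, flooded to 3 cm; compounds applied directly into paddy water, depth maintained. Visual rating versus untreated controls after 21 days, 0 (no effect) to 100 (complete control); 29.5/26.7 °C, 16-h photoperiod.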

[11] = system: late watergrass (Echinochloa oryzicola); test: Test E flooded paddy water application; details: Flood, 21 days, scale 0 to 100 (0 no effect, 100 complete control)
Outline: as §2

[12] = system: bearded (brdd.) sprangletop (Leptochloa fusca ssp. fascicularis); test: Test E flooded paddy water application; details: Flood, 21 days, scale 0 to 100 (0 no effect, 100 complete control)
Outline: as §2

[13] = system: transplanted rice seedlings (Oryza sativa cv. ‘Japonica-M202’); test: Test E flooded paddy water application; details: Flood, 21 days, scale 0 to 100 (0 no effect, 100 complete control)
Outline: as §2

[14] = system: rice flatsedge (Cyperus iria); test: Test E flooded paddy water application; details: Flood, 21 days, scale 0 to 100 (0 no effect, 100 complete control)
Outline: as §2

[15] = 125 g ai/ha, scale 0 to 100 (0 no effect, 100 complete control)

CCOC(=O)c1nc(-c2ccc(Cl)cc2)nc(N)c1Cl [Compound 64, ethyl 6-amino-5-chloro-2-(4-chlorophenyl)-4-pyrimidinecarboxylate]
Plant response rating (scale of 0 to 100), Ryegrass, Italian ([1]; 31 g ai/ha): 5
Plant response rating, Ryegrass, Italian ([1]; 250 g ai/ha, scale 0 to 100): 45
pest or weed control at 62 g/ha ([1]; Lolium multiflorum, post-emergence, 62 g ai/ha, scale 0 to 100 (0 no effect, 100 complete control), read-out: Ryegrass, Italian plant response rating): 30%
pest or weed control at 125 g/ha ([1]; Lolium multiflorum, post-emergence, 125 g ai/ha, scale 0 to 100 (0 no effect, 100 complete control), read-out: Ryegrass, Italian plant response rating): 35%
Plant response rating (scale of 0 to 100), Canarygrass ([2]; 31 g ai/ha): 5
Plant response rating, Canarygrass ([2]; 250 g ai/ha, scale 0 to 100): 10
pest or weed control at 62 g/ha ([2]; Phalaris minor, post-emergence, 62 g ai/ha, scale 0 to 100 (0 no effect, 100 complete control), read-out: Canarygrass plant response rating): 5%
pest or weed control at 125 g/ha ([2]; Phalaris minor, post-emergence, 125 g ai/ha, scale 0 to 100 (0 no effect, 100 complete control), read-out: Canarygrass plant response rating): 10%
Plant response rating (scale of 0 to 100), Blackgrass ([3]; 31 g ai/ha): 40
Plant response rating, Blackgrass ([3]; 250 g ai/ha, scale 0 to 100): 50
pest or weed control at 62 g/ha ([3]; Alopecurus myosuroides, post-emergence, 62 g ai/ha, scale 0 to 100 (0 no effect, 100 complete control), read-out: Blackgrass plant response rating): 45%
pest or weed control at 125 g/ha ([3]; Alopecurus myosuroides, post-emergence, 125 g ai/ha, scale 0 to 100 (0 no effect, 100 complete control), read-out: Blackgrass plant response rating): 50%
Plant response rating (scale of 0 to 100), Oat, Wild ([4]; 31 g ai/ha): 5
Plant response rating, Oat, Wild ([4]; 250 g ai/ha, scale 0 to 100): 10
pest or weed control at 62 g/ha ([4]; Avena fatua, post-emergence, 62 g ai/ha, scale 0 to 100 (0 no effect, 100 complete control), read-out: Oat, Wild plant response rating): 5%
pest or weed control at 125 g/ha ([4]; Avena fatua, post-emergence, 125 g ai/ha, scale 0 to 100 (0 no effect, 100 complete control), read-out: Oat, Wild plant response rating): 10%
Plant response rating (scale of 0 to 100), Bromegrass, Downy ([5]; 31 g ai/ha): 10
Plant response rating, Bromegrass, Downy ([5]; 250 g ai/ha, scale 0 to 100): 20
pest or weed control at 62 g/ha ([5]; Bromus tectorum, post-emergence, 62 g ai/ha, scale 0 to 100 (0 no effect, 100 complete control), read-out: Bromegrass, Downy plant response rating): 15%
pest or weed control at 125 g/ha ([5]; Bromus tectorum, post-emergence, 125 g ai/ha, scale 0 to 100 (0 no effect, 100 complete control), read-out: Bromegrass, Downy plant response rating): 20%
Plant response rating (scale of 0 to 100), Windgrass ([6]; 31 g ai/ha): 40
Plant response rating, Windgrass ([6]; 250 g ai/ha, scale 0 to 100): 60
pest or weed control at 62 g/ha ([6]; Apera spica-venti, post-emergence, 62 g ai/ha, scale 0 to 100 (0 no effect, 100 complete control), read-out: Windgrass plant response rating): 55%
pest or weed control at 125 g/ha ([6]; Apera spica-venti, post-emergence, 125 g ai/ha, scale 0 to 100 (0 no effect, 100 complete control), read-out: Windgrass plant response rating): 55%
Plant response rating (scale of 0 to 100), Wheat ([7]; 31 g ai/ha): 0
Plant response rating, Wheat ([7]; 250 g ai/ha, scale 0 to 100): 10
plant injury at 62 g/ha ([7]; Triticum aestivum, post-emergence, 62 g ai/ha, scale 0 to 100 (0 no effect, 100 complete control), read-out: Wheat plant response rating): 0%
plant injury at 125 g/ha ([7]; Triticum aestivum, post-emergence, 125 g ai/ha, scale 0 to 100 (0 no effect, 100 complete control), read-out: Wheat plant response rating): 10%
Plant response rating (scale of 0 to 100), Barley ([8]; 31 g ai/ha): 20
Plant response rating, Barley ([8]; 250 g ai/ha, scale 0 to 100): 100
plant injury at 62 g/ha ([8]; Hordeum vulgare, post-emergence, 62 g ai/ha, scale 0 to 100 (0 no effect, 100 complete control), read-out: Barley plant response rating): 20%
Plant response rating (scale of 0 to 100), Foxtail, Green ([9]; 31 g ai/ha): 0
Plant response rating, Foxtail, Green ([9]; 250 g ai/ha, scale 0 to 100): 45
pest or weed control at 62 g/ha ([9]; Setaria viridis, post-emergence, 62 g ai/ha, scale 0 to 100 (0 no effect, 100 complete control), read-out: Foxtail, Green plant response rating): 30%
pest or weed control at 125 g/ha ([9]; Setaria viridis, post-emergence, 125 g ai/ha, scale 0 to 100 (0 no effect, 100 complete control), read-out: Foxtail, Green plant response rating): 40%
Redstem plant response rating ([10]; 32 g ai/ha): 60
Redstem plant response rating ([10]; 64 g ai/ha): 60
Redstem plant response rating ([10]; 125 g ai/ha): 60
Redstem plant response rating ([10]; 250 g ai/ha): 80
Plant response rating, Redstem ([10]; 16 g ai/ha): 20
Watergrass, Late plant response rating ([11]; 32 g ai/ha): 0
Watergrass, Late plant response rating ([11]; 64 g ai/ha): 0
Watergrass, Late plant response rating ([11]; 125 g ai/ha): 20
Watergrass, Late plant response rating ([11]; 250 g ai/ha): 20
Plant response rating, Watergrass, Late ([11]; 16 g ai/ha): 0
Sprangletop, Brdd. plant response rating ([12]; 32 g ai/ha): 0
Sprangletop, Brdd. plant response rating ([12]; 64 g ai/ha): 0
Sprangletop, Brdd. plant response rating ([12]; 125 g ai/ha): 0
Sprangletop, Brdd. plant response rating ([12]; 250 g ai/ha): 0
Plant response rating, Sprangletop, Brdd. ([12]; 16 g ai/ha): 0
Rice, Transplanted plant response rating ([13]; 32 g ai/ha): 0
Rice, Transplanted plant response rating ([13]; 64 g ai/ha): 0
Rice, Transplanted plant response rating ([13]; 125 g ai/ha): 10
Rice, Transplanted plant response rating ([13]; 250 g ai/ha): 10
Plant response rating, Rice, Transplanted ([13]; 16 g ai/ha): 0
Flatsedge, Rice plant response rating ([14]; 32 g ai/ha): 85
Flatsedge, Rice plant response rating ([14]; 64 g ai/ha): 90
Flatsedge, Rice plant response rating ([14]; 125 g ai/ha): 100
Flatsedge, Rice plant response rating ([14]; 250 g ai/ha): 100
Plant response rating, Flatsedge, Rice ([14]; 16 g ai/ha): 75

Nc1nc(-c2ccc(Br)cc2)nc(C(=O)O)c1Br [Compound 136]
Plant response rating (scale of 0 to 100), Ryegrass, Italian ([1]; 16 g ai/ha): 45
Plant response rating (scale of 0 to 100), Ryegrass, Italian ([1]; 31 g ai/ha): 50
Plant response rating (scale of 0 to 100), Ryegrass, Italian ([1]; 62 g ai/ha): 60
Ryegrass, Italian plant response rating [1, 15]: 65
Plant response rating (scale of 0 to 100), Canarygrass ([2]; 16 g ai/ha): 40
Plant response rating (scale of 0 to 100), Canarygrass ([2]; 31 g ai/ha): 45
Plant response rating (scale of 0 to 100), Canarygrass ([2]; 62 g ai/ha): 55
Canarygrass plant response rating [2, 15]: 65
Plant response rating (scale of 0 to 100), Blackgrass ([3]; 16 g ai/ha): 40
Plant response rating (scale of 0 to 100), Blackgrass ([3]; 31 g ai/ha): 55
Plant response rating (scale of 0 to 100), Blackgrass ([3]; 62 g ai/ha): 65
Blackgrass plant response rating [3, 15]: 65
Plant response rating (scale of 0 to 100), Oat, Wild ([4]; 16 g ai/ha): 40
Plant response rating (scale of 0 to 100), Oat, Wild ([4]; 31 g ai/ha): 45
Plant response rating (scale of 0 to 100), Oat, Wild ([4]; 62 g ai/ha): 55
Oat, Wild plant response rating [4, 15]: 60
Plant response rating (scale of 0 to 100), Bromegrass, Downy ([5]; 16 g ai/ha): 30
Plant response rating (scale of 0 to 100), Bromegrass, Downy ([5]; 62 g ai/ha): 45
Bromegrass, Downy plant response rating [5, 15]: 55
Plant response rating (scale of 0 to 100), Windgrass ([6]; 16 g ai/ha): 45
Plant response rating (scale of 0 to 100), Windgrass ([6]; 31 g ai/ha): 60
Plant response rating (scale of 0 to 100), Windgrass ([6]; 62 g ai/ha): 65
Windgrass plant response rating [6, 15]: 65
Plant response rating (scale of 0 to 100), Wheat ([7]; 16 g ai/ha): 20
Plant response rating (scale of 0 to 100), Wheat ([7]; 31 g ai/ha): 40
Plant response rating (scale of 0 to 100), Wheat ([7]; 62 g ai/ha): 45
Wheat plant response rating [7, 15]: 55
Plant response rating (scale of 0 to 100), Barley ([8]; 16 g ai/ha): 40
Plant response rating (scale of 0 to 100), Barley ([8]; 31 g ai/ha): 50
Barley plant response rating ([8]; 62 g ai/ha, scale 0 to 100 (0 no effect, 100 complete control)): 50
Barley plant response rating [8, 15]: 55
Plant response rating (scale of 0 to 100), Foxtail, Green ([9]; 16 g ai/ha): 45
Plant response rating (scale of 0 to 100), Foxtail, Green ([9]; 31 g ai/ha): 65
Plant response rating (scale of 0 to 100), Foxtail, Green ([9]; 62 g ai/ha): 70
Foxtail, Green plant response rating [9, 15]: 70
